The record followed here is patent publication US20230381146A1, “SUBSTITUTED HETEROARYL COMPOUNDS AND USE THEREOF” (HELIOS HUAMING BIOPHARMA CO., LTD., priority 2020, published 2023).

pIC50: −log10 of the molar value.

PAD4, sequence (Q9UM07 whole entry): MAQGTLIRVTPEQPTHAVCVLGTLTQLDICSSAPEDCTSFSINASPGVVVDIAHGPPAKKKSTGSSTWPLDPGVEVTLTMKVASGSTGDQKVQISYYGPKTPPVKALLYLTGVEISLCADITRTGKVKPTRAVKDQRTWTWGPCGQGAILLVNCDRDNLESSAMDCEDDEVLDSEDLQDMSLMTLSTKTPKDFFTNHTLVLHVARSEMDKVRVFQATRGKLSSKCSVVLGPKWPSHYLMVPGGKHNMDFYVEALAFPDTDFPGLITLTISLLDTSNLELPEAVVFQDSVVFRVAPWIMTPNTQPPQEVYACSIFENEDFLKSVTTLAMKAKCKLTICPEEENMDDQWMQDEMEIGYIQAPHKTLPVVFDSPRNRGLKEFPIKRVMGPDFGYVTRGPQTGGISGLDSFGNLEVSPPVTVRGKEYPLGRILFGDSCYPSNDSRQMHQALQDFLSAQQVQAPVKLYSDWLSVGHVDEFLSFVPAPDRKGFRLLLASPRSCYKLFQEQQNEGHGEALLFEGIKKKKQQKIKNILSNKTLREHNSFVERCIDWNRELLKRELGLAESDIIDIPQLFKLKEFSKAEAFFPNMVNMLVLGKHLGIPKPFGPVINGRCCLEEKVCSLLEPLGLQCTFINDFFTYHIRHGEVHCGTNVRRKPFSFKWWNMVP

This assay has as its target PAD4 (Homo sapiens, UniProt Q9UM07). As to the kind of experiment: PAD4 Inhibition Assay (citrulline formation from BAEE substrate). Type of assay: biochemical. The note with it: PAD4 75 nM, 60 minute preincubation at 37° C., 90 minutes. The protocol: PAD4 was diluted to 75 nM in Assay Buffer (50 mM Tris-HCl, 2 mM CaCl2), 2 mM DTT, 1 mM PMSF in H2O) and added to wells with various concentrations of compound or DMSO vehicle in Eppendorf tubes (final volume was 100 μL). Following a 60 minute preincubation at 37° C., the reaction was initiated by the addition of 10 μL substrate (22 mM BAEE in H2O) at 37° C. The reaction was stopped after 90 minutes by the addition of 25 μL HClO4 (5 M), 125 μL Reagent A (10 g/L diacetyl monoxime and 15 g/L NaCl in H2O) and 250 μL Reagent B (10 mg/mL antipyrine and 1.0 mg/mL FeCl3 diluted in detection buffer containing 25% H2SO4, 25% H3PO4 and 50% H2O) in sequence. This assay was quenched in an ice-bath for 5 minutes after boiling for 30 minutes. The citrulline formation was measured in fluorescence (κ=465 nm) on microplate reader and the IC50 was calculated by GraphPad Prism.
Turning to `N=C(CF)NCCC[C@H](NC(=O)c1cccc(-c2cccc(Cl)c2)c1)c1ncc(-c2ccccc2)o1` [EX-1, (S)-3′-chloro-N-(4-(2-fluoroacetimidamido)-1-(5-phenyloxazol-2-yl)butyl)-[1,1′-biphenyl]-3-carboxamide], the pIC50 is 6.30 to 6.70.

In the case of `N=C(CCl)NCCC[C@H](NC(=O)c1cccc(-c2cccc(Cl)c2)c1)c1ncc(-c2ccccc2)o1` [EX-2, (S)-3′-chloro-N-(4-(2-chloroacetimidamido)-1-(5-phenyloxazol-2-yl)butyl)-[1,1′-biphenyl]-3-carboxamide], the pIC50 is less than 6.30.

In turn, `CN(C)c1ccc2cc(C(=O)N[C@@H](CCCNC(=N)CCl)c3ncc(-c4ccccc4)o3)ccc2c1` [EX-3, N-[(1S)-4-(2-chloroethanimidamido)-1-(5-phenyl-1,3-oxazol-2-yl)butyl]-6-(dimethylamino)naphthalene-2-carboxamide] gave a pIC50 of 6.30 to 6.70.

With `CN(C)c1ccc2cc(C(=O)N[C@@H](CCCNC(=N)CF)c3ncc(-c4ccccc4)o3)ccc2c1` [EX-4, (S)-6-(Dimethylamino)-N-(4-(2-fluoroacetimidamido)-1-(5-phenyloxazol-2-yl)butyl)-2-naphthamide], the negative-log IC50 (pIC50) is 6.30 to 6.70.

In turn, `COc1cccc(-c2cccc(C(=O)N[C@@H](CCCNC(=N)CF)c3ncc(-c4ccccc4)o3)c2)c1` [EX-5, (S)—N-(4-(2-fluoroacetimidamido)-1-(5-phenyloxazol-2-yl)butyl)-3′-methoxy-[1,1′-biphenyl]-3-carboxamide] gave a pIC50 of 6.30 to 6.70.

For `COc1ccc(-c2cccc(C(=O)N[C@@H](CCCNC(=N)CF)c3ncc(-c4ccccc4)o3)c2)cc1` [EX-6, (S)—N-(4-(2-fluoroacetimidamido)-1-(5-phenyloxazol-2-yl)butyl)-4′-methoxy-[1,1′-biphenyl]-3-carboxamide], the pIC50 is 6.30 to 6.70.

The molecule `CN(C)c1ccc2cc(C(=O)N[C@@H](CCCNC(=N)CF)c3ncc(-c4ccc(Cl)cc4)o3)ccc2c1` [EX-7, (S)—N-(1-(5-(4-chlorophenyl)oxazol-2-yl)-4-(2-fluoroacetimidamido)butyl)-6-(dimethylamino)-2-naphthamide] showed a pIC50 of less than 6.30.

In turn, `CN(C)c1ccc2cc(C(=O)N[C@@H](CCCNC(=N)CF)c3ncc(-c4cccc(F)c4)o3)ccc2c1` [EX-8, (S)-6-(Dimethylamino)-N-(4-(2-fluoroacetimidamido)-1-(5-(3-fluorophenyl)oxazol-2-yl)butyl)-2-naphthamide] gave a pIC50 of less than 6.30.

On to `N=C(CF)NCCC[C@H](NC(=O)c1cccc(-c2ccc(CO)cc2)c1)c1ncc(-c2ccc(Cl)cc2)o1` [EX-9, (S)—N-(1-(5-(4-chlorophenyl)oxazol-2-yl)-4-(2-fluoroacetimidamido)butyl)-4′-(hydroxymethyl)-[1,1′-biphenyl]-3-carboxamide], for which the pIC50 was less than 6.30.

Consider `COc1cc2c(OC)cccc2cc1C(=O)N[C@@H](CCCNC(=N)CF)c1ncc(-c2ccccc2)o1` [EX-10], for which the pIC50 was more than 6.70.

`COc1cc2c(OC)cccc2cc1C(=O)N[C@@H](CCCNC(=N)CF)c1ncc(C2CCCC2)o1` [EX-11, (S)-N-(1-(5-Cyclopentyloxazol-2-yl)-4-(2-fluoroacetimidamido)butyl)-3,5-dimethoxy-2-naphthamide] showed a pIC50 of 6.30 to 6.70.

On to `COc1cc2c(OC)cccc2cc1C(=O)N[C@@H](CCCNC(=N)CF)c1ncc(C)o1` [EX-12, (S)-N-(4-(2-fluoroacetimidamido)-1-(5-methyloxazol-2-yl)butyl)-3,5-dimethoxy-2-naphthamide], for which the pIC50 was less than 6.30.

Consider `COc1cc2c(OC)cccc2cc1C(=O)N[C@@H](CCCNC(=N)CF)c1ncc(-c2cccc(Cl)c2)o1` [EX-13, (S)-N-(1-(5-(3-Chlorophenyl)oxazol-2-yl)-4-(2-fluoroacetimidamido)butyl)-3,5-dimethoxy-2-naphthamide], for which the negative-log IC50 (pIC50) was 6.30 to 6.70.

Consider `COc1cc2c(OC)cccc2cc1C(=O)N[C@@H](CCCNC(=N)CF)c1ncc(-c2cccc(F)c2)o1` [EX-14, (S)-N-(4-(2-Fluoroacetimidamido)-1-(5-(3-fluorophenyl)oxazol-2-yl)butyl)-3,5-dimethoxy-2-naphthamide], for which the negative logarithm of the IC50 (pIC50) was 6.30 to 6.70.

For the molecule `N=C(CF)NCCC[C@H](NC(=O)c1cccc(-c2cc(Cl)ccn2)c1)c1ncc(-c2ccccc2)o1` [EX-15], the pIC50 is less than 6.30.

For the molecule `N=C(CF)NCCC[C@H](NC(=O)c1cccc(N2CCCC2)c1)c1ncc(-c2ccccc2)o1` [EX-16, (S)—N-(4-(2-fluoroacetimidamido)-1-(5-phenyloxazol-2-yl)butyl)-3-(pyrrolidin-1-yl)benzamide], the pIC50 was 6.30 to 6.70.

`COc1ccc(N2CCOCC2)cc1C(=O)N[C@@H](CCCNC(=N)CF)c1ncc(-c2ccccc2)o1` [EX-17, (S)-N-(4-(2-Fluoroacetimidamido)-1-(5-phenyloxazol-2-yl)butyl)-2-methoxy-5-morpholinobenzamide] showed a pIC50 of less than 6.30.

`COc1ccc(N2CCN(C)CC2)cc1C(=O)N[C@@H](CCCNC(=N)CF)c1ncc(-c2ccccc2)o1` [EX-18, (S)-N-(4-(2-Fluoroacetimidamido)-1-(5-phenyloxazol-2-yl)butyl)-2-methoxy-5-(4-methylpiperazin-1-yl)benzamide] showed a pIC50 of 6.30 to 6.70.

`COc1cccc(OC)c1C(=O)N[C@@H](CCCNC(=N)CF)c1ncc(-c2ccc(Cl)cc2)o1` [EX-19] had a pIC50 of 6.30 to 6.70.

As to `COc1ccc(-c2cnc([C@H](CCCNC(=N)CF)NC(=O)c3c(OC)cccc3OC)o2)cc1` [EX-20, (S)-N-(4-(2-Fluoroacetimidamido)-1-(5-(4-methoxyphenyl)oxazol-2-yl)butyl)-2,6-dimethoxybenzamide], the pIC50 was 6.30 to 6.70.

`COc1cccc(OC)c1C(=O)N[C@@H](CCCNC(=N)CF)c1ncc(-c2ccccc2Cl)o1` [EX-21, (S)-N-(1-(5-(2-Chlorophenyl)oxazol-2-yl)-4-(2-fluoroacetimidamido)butyl)-2,6-dimethoxybenzamide] showed a pIC50 of more than 6.70.

Molecule `COc1cccc(Cl)c1C(=O)N[C@@H](CCCNC(=N)CF)c1ncc(-c2ccc(Cl)cc2)o1` [EX-22, (S)-2-chloro-N-(1-(5-(4-chlorophenyl)oxazol-2-yl)-4-(2-fluoroacetimidamido)butyl)-6-methoxybenzamide] had a pIC50 of 6.30 to 6.70.

Consider `CN(C)c1cccc(Cl)c1C(=O)N[C@@H](CCCNC(=N)CF)c1ncc(-c2ccc(Cl)cc2)o1` [EX-23, (S)-2-Chloro-N-(1-(5-(4-chlorophenyl)oxazol-2-yl)-4-(2-fluoroacetimidamido)butyl)-6-(dimethylamino)benzamide], for which the pIC50 is 6.30 to 6.70.

Molecule `COc1cccc(Cl)c1C(=O)N[C@@H](CCCNC(=N)CF)c1ncc(-c2ccc(F)cc2)o1` [EX-24, (S)-2-Chloro-N-(4-(2-fluoroacetimidamido)-1-(5-(4-fluorophenyl)oxazol-2-yl)butyl)-6-methoxybenzamide] gave a pIC50 of more than 6.70.

As to `COc1cccc(Cl)c1C(=O)N[C@@H](CCCNC(=N)CF)c1ncc(-c2cc(F)cc(F)c2)o1` [EX-25, (S)-2-Chloro-N-(1-(5-(3,5-difluorophenyl)oxazol-2-yl)-4-(2-fluoroacetimidamido)butyl)-6-methoxybenzamide], the negative logarithm of the IC50 (pIC50) is 6.30 to 6.70.

`COc1cccc(Cl)c1C(=O)N[C@@H](CCCNC(=N)CF)c1ncc(-c2ccccc2Cl)o1` [EX-26, (S)-2-Chloro-N-(1-(5-(2-chlorophenyl)oxazol-2-yl)-4-(2-fluoroacetimidamido)butyl)-6-methoxybenzamide] had a pIC50 of 6.30 to 6.70.

As to `COc1cccc(Cl)c1C(=O)N[C@@H](CCCNC(=N)CF)c1ncc(-c2cccc(C(F)(F)F)c2)o1` [EX-27, (S)-2-Chloro-N-(4-(2-fluoroacetimidamido)-1-(5-(3-(trifluoromethyl)phenyl)oxazol-2-yl)butyl)-6-methoxybenzamide], the pIC50 is less than 6.30.

Turning to `COc1cccc(Cl)c1C(=O)N[C@@H](CCCNC(=N)CF)c1ncc(-c2cccc(C)c2)o1` [EX-28, (S)-2-Chloro-N-(4-(2-fluoroacetimidamido)-1-(5-(m-tolyl)oxazol-2-yl)butyl)-6-methoxybenzamide], the negative-log IC50 (pIC50) is 6.30 to 6.70.

The molecule `COc1cccc(Cl)c1C(=O)N[C@@H](CCCNC(=N)CF)c1ncc(-c2ccc(N(C)C)cc2)o1` [EX-29, (S)-2-Chloro-N-(1-(5-(4-(dimethylamino)phenyl)oxazol-2-yl)-4-(2-fluoroacetimidamido)butyl)-6-methoxybenzamide] had a pIC50 of less than 6.30.

Take `N=C(CF)NCCC[C@H](NC(=O)c1c(Cl)cccc1Cl)c1ncc(-c2ccc(F)cc2)o1` [EX-30, (S)-2,6-Dichloro-N-(4-(2-fluoroacetimidamido)-1-(5-(4-fluorophenyl)oxazol-2-yl)butyl)benzamide]: the pIC50 was less than 6.30.

`COc1cccc(F)c1C(=O)N[C@@H](CCCNC(=N)CF)c1ncc(-c2cccc(C)c2)o1` [EX-31, (S)-2-Fluoro-N-(4-(2-fluoroacetimidamido)-1-(5-(m-tolyl)oxazol-2-yl)butyl)-6-methoxybenzamide]: the pIC50 was 6.30 to 6.70.

`Cc1cccc(-c2cnc([C@H](CCCNC(=N)CF)NC(=O)c3c(F)cccc3F)o2)c1` [EX-32, (S)-2,6-Difluoro-N-(4-(2-fluoroacetimidamido)-1-(5-(m-tolyl)oxazol-2-yl)butyl)benzamide]: the pIC50 is 6.30 to 6.70.

As for `COc1cccc(Cl)c1C(=O)N[C@@H](CCCNC(=N)CF)c1ncc(-c2cccc(Cl)c2)o1` [EX-33, (S)-2-Chloro-N-(1-(5-(3-chlorophenyl)oxazol-2-yl)-4-(2-fluoroacetimidamido)butyl)-6-methoxybenzamide], the negative-log IC50 (pIC50) was 6.30 to 6.70.
